# Measured values: publication PMC5218480 (PLoS ONE, 2017)
# System: MV-4-11 cells
# Assay: Gene expression microarray analysis (Affymetrix PrimeView) and GSEA
# Assay type: cell-based, human
# Set-up: RFU PODN (11730768_x_at) / Fold change /veh PODN (11730768_x_at) / RFU LINC00158 (11744669_a_at) / Fold change /veh LINC00158 (11744669_a_at) / RFU DUSP10 (11751237_a_at) / Fold change /veh DUSP10 (11751237_a_at) / RFU ID3 (11757404_x_at) / Fold change /veh ID3 (11757404_x_at) / RFU PLEKHG5 (11737974_s_at) / Fold change /veh PLEKHG5 (11737974_s_at) / RFU LRRC4B (11730491_at) / Fold change /veh LRRC4B (11730491_at) / RFU GIMAP4 (11747438_a_at) / Fold change /veh GIMAP4 (11747438_a_at) / RFU KRT8 (11758183_x_at) / Fold change /veh KRT8 (11758183_x_at) / RFU CNN1 (11734310_a_at) / Fold change /veh CNN1 (11734310_a_at) / RFU VPS37D (11726825_at) / Fold change /veh VPS37D (11726825_at) / RFU C10orf10 (11716522_x_at) / Fold change /veh C10orf10 (11716522_x_at) / RFU KIR2DL2 /// KIR2DL4 /// KIR2DL5A /// KIR2DL5B /// KIR2DS1 /// KIR2DS2 /// KIR2DS3 /// KIR2DS4 /// KIR3DL3 /// KIR3DL3 /// KIR3DS1 (11738374_at) / Fold change /veh KIR2DL2 /// KIR2DL4 /// KIR2DL5A /// KIR2DL5B /// KIR2DS1 /// KIR2DS2 /// KIR2DS3 /// KIR2DS4 /// KIR3DL3 /// KIR3DL3 /// KIR3DS1 (11738374_at) / RFU C1QL1 (11718748_at) / Fold change /veh C1QL1 (11718748_at) / RFU TMPRSS4 (11747572_a_at) / Fold change /veh TMPRSS4 (11747572_a_at) / RFU HAMP (11756126_x_at) / Fold change /veh HAMP (11756126_x_at) / RFU RNFT2 (11725882_a_at) / Fold change /veh RNFT2 (11725882_a_at) / RFU NR4A2 (11747474_a_at) / Fold change /veh NR4A2 (11747474_a_at) / RFU ABCC12 (11746883_a_at) / Fold change /veh ABCC12 (11746883_a_at) / RFU TMEM136 (11760407_x_at) / Fold change /veh TMEM136 (11760407_x_at) / RFU CLDN22 /// WWC2 (11732394_at) / Fold change /veh CLDN22 /// WWC2 (11732394_at) / RFU HLA-DPB1 (11760878_x_at) / Fold change /veh HLA-DPB1 (11760878_x_at) / RFU SPINT1 (11716480_a_at) / Fold change /veh SPINT1 (11716480_a_at) / RFU GAP43 (11754022_s_at) / Fold change /veh GAP43 (11754022_s_at) / RFU A4GNT (11735810_at) / Fold change /veh A4GNT (11735810_at) / RFU PRB3 (11715151_x_at) / Fold change /veh PRB3 (11715151_x_at) / RFU TUBB4B (11761932_at) / Fold change /veh TUBB4B (11761932_at) / RFU CAPN14 (11732068_a_at) / Fold change /veh CAPN14 (11732068_a_at) / RFU TMCC2 (11721928_a_at) / Fold change /veh TMCC2 (11721928_a_at) / RFU IRGQ (11745062_a_at) / Fold change /veh IRGQ (11745062_a_at) / RFU FAM174B (11720279_a_at) / Fold change /veh FAM174B (11720279_a_at) / RFU TMPRSS4 (11748680_a_at) / Fold change /veh TMPRSS4 (11748680_a_at) / RFU FAM212B (11763350_a_at) / Fold change /veh FAM212B (11763350_a_at) / RFU PLEKHG5 (11743358_a_at) / Fold change /veh PLEKHG5 (11743358_a_at) / RFU ZSCAN30 (11745921_a_at) / Fold change /veh ZSCAN30 (11745921_a_at) / RFU CMKLR1 (11741424_a_at) / Fold change /veh CMKLR1 (11741424_a_at) / RFU LOC101060620 /// MAPK8IP1 (11723275_at) / Fold change /veh LOC101060620 /// MAPK8IP1 (11723275_at) / RFU SPTSSB (11747773_x_at) / Fold change /veh SPTSSB (11747773_x_at) / RFU PRSS12 (11739890_at) / Fold change /veh PRSS12 (11739890_at) / RFU BIN1 (11741810_x_at) / Fold change /veh BIN1 (11741810_x_at) / RFU WNT11 (11732464_a_at) / Fold change /veh WNT11 (11732464_a_at) / RFU C10orf10 (11716521_a_at) / Fold change /veh C10orf10 (11716521_a_at) / RFU C5orf56 (11738089_at) / Fold change /veh C5orf56 (11738089_at) / RFU CYB561 (11721691_x_at) / Fold change /veh CYB561 (11721691_x_at) / RFU ANKRD19P (11752326_a_at) / Fold change /veh ANKRD19P (11752326_a_at) / RFU OR2T12 /// OR2T33 /// OR2T8 (11738714_s_at) / Fold change /veh OR2T12 /// OR2T33 /// OR2T8 (11738714_s_at) / RFU VCAN (11748164_a_at) / Fold change /veh VCAN (11748164_a_at) / RFU JSRP1 (11732532_at) / Fold change /veh JSRP1 (11732532_at) / RFU KRTAP10-11 (11738290_x_at) / Fold change /veh KRTAP10-11 (11738290_x_at) / RFU MYO3A (11730013_a_at) / Fold change /veh MYO3A (11730013_a_at) / RFU EBF3 (11725865_a_at) / Fold change /veh EBF3 (11725865_a_at) / RFU CAMK2N1 (11719241_x_at) / Fold change /veh CAMK2N1 (11719241_x_at) / RFU C5orf56 (11738088_a_at) / Fold change /veh C5orf56 (11738088_a_at) / RFU OLFML3 (11715873_a_at) / Fold change /veh OLFML3 (11715873_a_at) / RFU LOC100653217 /// NTM (11731650_a_at) / Fold change /veh LOC100653217 /// NTM (11731650_a_at) / RFU MAPK11 (11762145_a_at) / Fold change /veh MAPK11 (11762145_a_at) / RFU FIZ1 (11724087_x_at) / Fold change /veh FIZ1 (11724087_x_at) / RFU OASL (11726364_x_at) / Fold change /veh OASL (11726364_x_at) / RFU SOX15 (11748057_x_at) / Fold change /veh SOX15 (11748057_x_at) / RFU CD79A (11719716_a_at) / Fold change /veh CD79A (11719716_a_at) / RFU HIST1H1D (11736915_at) / Fold change /veh HIST1H1D (11736915_at) / RFU CASKIN2 (11723855_a_at) / Fold change /veh CASKIN2 (11723855_a_at) / RFU LOC730098 (11760151_x_at) / Fold change /veh LOC730098 (11760151_x_at) / RFU OR4N2 (11742367_at) / Fold change /veh OR4N2 (11742367_at) / RFU PRRT2 (11749266_a_at) / Fold change /veh PRRT2 (11749266_a_at) / RFU SNX32 (11753110_a_at) / Fold change /veh SNX32 (11753110_a_at) / RFU CDHR5 (11726645_a_at) / Fold change /veh CDHR5 (11726645_a_at) / RFU RCAN1 (11760418_a_at) / Fold change /veh RCAN1 (11760418_a_at) / RFU FAM167A (11723789_a_at) / Fold change /veh FAM167A (11723789_a_at) / RFU FAM26E (11764081_at) / Fold change /veh FAM26E (11764081_at) / RFU ISYNA1 (11749810_s_at) / Fold change /veh ISYNA1 (11749810_s_at) / RFU ACY1 (11761880_at) / Fold change /veh ACY1 (11761880_at) / RFU 11764098_at / Fold change /veh 11764098_at / RFU SAMD14 (11745864_x_at) / Fold change /veh SAMD14 (11745864_x_at) / RFU NPB (11741838_a_at) / Fold change /veh NPB (11741838_a_at) / RFU TMPRSS6 (11731388_a_at) / Fold change /veh TMPRSS6 (11731388_a_at) / RFU KRTAP10-2 (11738614_at) / Fold change /veh KRTAP10-2 (11738614_at) / RFU ARHGAP8 /// PRR5-ARHGAP8 (11727945_x_at) / Fold change /veh ARHGAP8 /// PRR5-ARHGAP8 (11727945_x_at) / RFU KRTAP5-7 /// NADSYN1 (11734609_at) / Fold change /veh KRTAP5-7 /// NADSYN1 (11734609_at) / RFU RASL12 (11751679_a_at) / Fold change /veh RASL12 (11751679_a_at) / RFU CDKN2B (11736163_a_at) / Fold change /veh CDKN2B (11736163_a_at) / RFU PRF1 (11729649_at) / Fold change /veh PRF1 (11729649_at) / RFU, ZNF638 /// ZNF638-IT1 / Fold change vs veh, ZNF638 /// ZNF638-IT1 / RFU, PANK3 / Fold change vs veh, PANK3 / RFU, SH3YL1 / Fold change vs veh, SH3YL1 / RFU, ZEB2 / Fold change vs veh, ZEB2 / RFU, NRIP1 / Fold change vs veh, NRIP1 / RFU, PTTG1IP / Fold change vs veh, PTTG1IP / RFU, CAPN2 / Fold change vs veh, CAPN2 / RFU, MED14 / Fold change vs veh, MED14 / RFU, SNORA58 / Fold change vs veh, SNORA58 / RFU, C1orf63 / Fold change vs veh, C1orf63 / RFU, LRRFIP1 / Fold change vs veh, LRRFIP1 / RFU, NDUFAF7 / Fold change vs veh, NDUFAF7 / RFU, SLC12A2 / Fold change vs veh, SLC12A2 / RFU, IBTK / Fold change vs veh, IBTK / RFU, ESF1 / Fold change vs veh, ESF1 / Fold change vs veh, TMEM50B / RFU, TAOK1 / Fold change vs veh, TAOK1 / RFU, ACBD3 / Fold change vs veh, ACBD3 / RFU, TMA16 / Fold change vs veh, TMA16 / RFU, RWDD3 / Fold change vs veh, RWDD3 / RFU, BCAT1 / Fold change vs veh, BCAT1 / RFU, EDEM3 / Fold change vs veh, EDEM3 / RFU, TMEM33 / Fold change vs veh, TMEM33 / RFU, WDR75 / Fold change vs veh, WDR75 / RFU, AHCTF1 / Fold change vs veh, AHCTF1 / RFU, TFRC / Fold change vs veh, TFRC / RFU, ZDHHC17 / Fold change vs veh, ZDHHC17 / RFU, NOM1 / Fold change vs veh, NOM1 / RFU, ARL8B / Fold change vs veh, ARL8B / RFU, ZBTB11 / Fold change vs veh, ZBTB11 / RFU, TAMM41 / Fold change vs veh, TAMM41 / RFU, KIAA1704 /// LOC100996395 / Fold change vs veh, KIAA1704 /// LOC100996395 / RFU, ING1 / Fold change vs veh, ING1 / RFU, TRMT61B / Fold change vs veh, TRMT61B / RFU, FUBP3 / Fold change vs veh, FUBP3 / RFU, TP53 / Fold change vs veh, TP53 / RFU, TNKS2 / Fold change vs veh, TNKS2 / RFU, ZFP14 / Fold change vs veh, ZFP14 / RFU, ACTR2 / Fold change vs veh, ACTR2 / RFU, PPP3R1 / Fold change vs veh, PPP3R1 / RFU, PIK3R1 / Fold change vs veh, PIK3R1 / RFU, HNRNPA1 / Fold change vs veh, HNRNPA1 / RFU, RNF170 / Fold change vs veh, RNF170 / RFU, ZNF28 / Fold change vs veh, ZNF28 / RFU, RNGTT / Fold change vs veh, RNGTT / RFU, OGT / Fold change vs veh, OGT / RFU, BRD1 / Fold change vs veh, BRD1 / RFU, MARS / Fold change vs veh, MARS / RFU, ZNF655 / Fold change vs veh, ZNF655 / RFU, FAHD1 / Fold change vs veh, FAHD1 / RFU, BDP1 / Fold change vs veh, BDP1 / RFU, LRRCC1 / Fold change vs veh, LRRCC1 / RFU, ARID1A / Fold change vs veh, ARID1A / RFU, ZNF146 / Fold change vs veh, ZNF146 / RFU, ZNF330 / Fold change vs veh, ZNF330 / RFU, GPN3 / Fold change vs veh, GPN3 / RFU, C9orf123 / Fold change vs veh, C9orf123 / RFU, N4BP2L2 / Fold change vs veh, N4BP2L2 / RFU, ARFIP1 / Fold change vs veh, ARFIP1 / RFU, FAM179B / Fold change vs veh, FAM179B / RFU, BCL10 / Fold change vs veh, BCL10 / RFU, UHRF1BP1L / Fold change vs veh, UHRF1BP1L / RFU, BET1 / Fold change vs veh, BET1 / RFU, CNOT2 / Fold change vs veh, CNOT2 / RFU, ZNF268 / Fold change vs veh, ZNF268 / Fold change vs veh, ZNF507 / RFU, DGCR2 / Fold change vs veh, DGCR2 / RFU, WDSUB1 / Fold change vs veh, WDSUB1 / Fold change vs veh, HSP90B1 /// MIR3652 / RFU, ADSS / Fold change vs veh, ADSS / RFU, GK / Fold change vs veh, GK / RFU, ZNF148 / Fold change vs veh, ZNF148 / RFU, TAF9 / Fold change vs veh, TAF9 / RFU, SLC1A5 / Fold change vs veh, SLC1A5 / RFU, SLMO2 / Fold change vs veh, SLMO2 / RFU, ABCC4 / Fold change vs veh, ABCC4 / RFU, LOC101060439 /// RAP1B / Fold change vs veh, LOC101060439 /// RAP1B / RFU, RFX7 / Fold change vs veh, RFX7 / RFU, GTPBP10 / Fold change vs veh, GTPBP10 / RFU, CNEP1R1 / Fold change vs veh, CNEP1R1 / RFU, BIVM-ERCC5 /// ERCC5 / Fold change vs veh, BIVM-ERCC5 /// ERCC5 / RFU, ILF3 / Fold change vs veh, ILF3 / RFU 11762660_at / Fold change /veh 11762660_at / RFU VCAN (11757783_s_at) / Fold change /veh VCAN (11757783_s_at) / RFU DDX43 (11728927_at) / Fold change /veh DDX43 (11728927_at) / RFU KRT8 (11758188_x_at) / Fold change /veh KRT8 (11758188_x_at) / RFU NKD1 (11759106_at) / Fold change /veh NKD1 (11759106_at) / RFU SRD5A1 (11742802_a_at) / Fold change /veh SRD5A1 (11742802_a_at) / RFU TPSAB1 /// TPSB2 (11721975_s_at) / Fold change /veh TPSAB1 /// TPSB2 (11721975_s_at) / RFU GSTM3 (11746129_a_at) / Fold change /veh GSTM3 (11746129_a_at) / RFU IL23R (11737362_x_at) / Fold change /veh IL23R (11737362_x_at) / RFU TMEM51 (11727254_a_at) / Fold change /veh TMEM51 (11727254_a_at) / RFU PIWIL2 (11732686_x_at) / Fold change /veh PIWIL2 (11732686_x_at) / RFU ORM1 (11744905_x_at) / Fold change /veh ORM1 (11744905_x_at) / RFU CCDC152 (11743942_at) / Fold change /veh CCDC152 (11743942_at) / RFU ECM1 (11717891_a_at) / Fold change /veh ECM1 (11717891_a_at) / RFU IL23R (11748794_a_at) / Fold change /veh IL23R (11748794_a_at) / RFU TNFAIP8L3 (11732012_x_at) / Fold change /veh TNFAIP8L3 (11732012_x_at) / RFU MBOAT4 (11741988_at) / Fold change /veh MBOAT4 (11741988_at) / RFU 11764193_at / Fold change /veh 11764193_at / RFU TMEM53 (11763286_at) / Fold change /veh TMEM53 (11763286_at) / RFU MAGEB2 (11727129_at) / Fold change /veh MAGEB2 (11727129_at) / RFU TMEM200A (11744735_a_at) / Fold change /veh TMEM200A (11744735_a_at) / RFU CCDC152 (11751479_a_at) / Fold change /veh CCDC152 (11751479_a_at) / RFU FAM211A (11726209_a_at) / Fold change /veh FAM211A (11726209_a_at) / RFU RGS16 (11746705_a_at) / Fold change /veh RGS16 (11746705_a_at) / RFU VCAN (11755009_s_at) / Fold change /veh VCAN (11755009_s_at) / RFU RHOB (11743442_s_at) / Fold change /veh RHOB (11743442_s_at) / RFU RGS16 (11720943_a_at) / Fold change /veh RGS16 (11720943_a_at) / RFU RGS16 (11720944_at) / Fold change /veh RGS16 (11720944_at) / RFU, VPS4B / Fold change vs veh, VPS4B / RFU, CREB1 / Fold change vs veh, CREB1 / RFU, DNAJC13 / Fold change vs veh, DNAJC13 / RFU, GNAQ / Fold change vs veh, GNAQ / RFU, CDK5R1 / Fold change vs veh, CDK5R1 / RFU, ZRANB3 / Fold change vs veh, ZRANB3 / RFU, CUL4A / Fold change vs veh, CUL4A / RFU, CCNY / Fold change vs veh, CCNY / RFU, UFL1 / Fold change vs veh, UFL1 / RFU, COG3 / Fold change vs veh, COG3 / RFU, DIAPH2 / Fold change vs veh, DIAPH2 / RFU, SKA2 / Fold change vs veh, SKA2 / RFU, AFF3 / Fold change vs veh, AFF3 / RFU, LMF1 / Fold change vs veh, LMF1 / RFU, IPO11 / Fold change vs veh, IPO11 / RFU, DFFB / Fold change vs veh, DFFB / RFU, FOXP1 / Fold change vs veh, FOXP1 / RFU, CARD8 / Fold change vs veh, CARD8 / RFU, STRN3 / Fold change vs veh, STRN3 / RFU, ADK / Fold change vs veh, ADK / RFU, RASSF2 / Fold change vs veh, RASSF2 / RFU, WIPF1 / Fold change vs veh, WIPF1 / RFU, LARP1B / Fold change vs veh, LARP1B / RFU, RASA1 / Fold change vs veh, RASA1 / RFU, RB1 / Fold change vs veh, RB1 / RFU, PPFIA1 / Fold change vs veh, PPFIA1 / RFU, MAT2A / Fold change vs veh, MAT2A / RFU, CCT5 / Fold change vs veh, CCT5 / RFU, WDR92 / Fold change vs veh, WDR92 / RFU, CUX1 / Fold change vs veh, CUX1 / RFU, TTC7A / Fold change vs veh, TTC7A / RFU, TMEM135 / Fold change vs veh, TMEM135 / RFU, DEPTOR / Fold change vs veh, DEPTOR / RFU, CPM / Fold change vs veh, CPM / RFU, DNAJB6 / Fold change vs veh, DNAJB6 / RFU, CACNA2D3 / Fold change vs veh, CACNA2D3 / RFU, DTX4 / Fold change vs veh, DTX4 / RFU, TFCP2 / Fold change vs veh, TFCP2 / RFU, GMCL1 /// GMCL1P1 / Fold change vs veh, GMCL1 /// GMCL1P1 / RFU, AEBP2 / Fold change vs veh, AEBP2 / RFU, SNHG1 /// SNORD22 /// SNORD25 /// SNORD26 /// SNORD27 /// SNORD28 /// SNORD29 /// SNORD31 / Fold change vs veh, SNHG1 /// SNORD22 /// SNORD25 /// SNORD26 /// SNORD27 /// SNORD28 /// SNORD29 /// SNORD31 / Fold change (Aza/veh), C12orf56 (ProbeSet 11735607_a_at) / Fold change (ACY-1035/veh), C12orf56 (ProbeSet 11735607_a_at) / Fold change (Aza/veh), FGFR1OP (ProbeSet 11751329_s_at) / Fold change (ACY-1035/veh), FGFR1OP (ProbeSet 11751329_s_at) / Fold change (Aza/veh), VPS36 (ProbeSet 11739960_a_at) / Fold change (ACY-1035/veh), VPS36 (ProbeSet 11739960_a_at) / RFU SYPL1 (11715823_x_at) / Fold change /veh SYPL1 (11715823_x_at) / RFU IGFBP7 (11715501_s_at) / Fold change /veh IGFBP7 (11715501_s_at) / RFU REEP3 (11722064_at) / Fold change /veh REEP3 (11722064_at) / RFU IGLL1 (11728026_x_at) / Fold change /veh IGLL1 (11728026_x_at): dose or concentration left out as unconfirmed
# Conditions: MV-4-11 cells, 48 hours
structure (smiles),measurement,value
Nc1ccc(-c2cccs2)cc1NC(=O)c1ccc2c(c1)cc(C1CC1)n2CCN1CCOCC1 [ACY-1035],RFU OR2T12 /// OR2T33 /// OR2T8 (11738714_s_at),6.34 RFU
